{"source": "patent US11149031B2", "about": "“Substituted N-(3-fluoropropyl)-pyrrolidine compounds, processes for their preparation and therapeutic uses thereof” (SANOFI, priority 2016, dated 2021)", "key": {"[1]": {"tested_on": "MCF7 cells (breast tumor cells) WT", "test": "Test B: cell proliferation/viability assay (CellTiter-Glo) on MCF7 WT", "assay_type": "cell-based", "conditions": "Homo sapiens, MCF7, 168 h, 7 days of compound exposure", "procedure,_shortened": "(§1)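 MCF7 WT / ER mutant lines (estradiol-independent, Tyr537Ser or Asp538Gly); stripped-serum, phenol red-free MEM; 9 pt 1:5 dil, 3-0.000001 μM final; 7 d; CellTiter-Glo RLU → % viability vs untreated, background-subtracted.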"}, "[2]": {"tested_on": "MCF7 cells expressing mutant estrogen receptor Asp 538 Gly", "test": "Test B: cell proliferation/viability assay (CellTiter-Glo) on MCF7 Asp 538 Gly mutant", "assay_type": "cell-based", "conditions": "Homo sapiens, MCF7, 168 h, MCF7 cells expressing ER Asp 538 Gly mutant, 7 days of compound exposure, read-out: proliferation MCF7 D538G IC50", "procedure,_shortened": "as §1"}, "ERα in MCF7 cells": {"target": "ERα in MCF7 cells (Homo sapiens (Human), UniProt P03372)", "sequence (P03372 whole entry)": "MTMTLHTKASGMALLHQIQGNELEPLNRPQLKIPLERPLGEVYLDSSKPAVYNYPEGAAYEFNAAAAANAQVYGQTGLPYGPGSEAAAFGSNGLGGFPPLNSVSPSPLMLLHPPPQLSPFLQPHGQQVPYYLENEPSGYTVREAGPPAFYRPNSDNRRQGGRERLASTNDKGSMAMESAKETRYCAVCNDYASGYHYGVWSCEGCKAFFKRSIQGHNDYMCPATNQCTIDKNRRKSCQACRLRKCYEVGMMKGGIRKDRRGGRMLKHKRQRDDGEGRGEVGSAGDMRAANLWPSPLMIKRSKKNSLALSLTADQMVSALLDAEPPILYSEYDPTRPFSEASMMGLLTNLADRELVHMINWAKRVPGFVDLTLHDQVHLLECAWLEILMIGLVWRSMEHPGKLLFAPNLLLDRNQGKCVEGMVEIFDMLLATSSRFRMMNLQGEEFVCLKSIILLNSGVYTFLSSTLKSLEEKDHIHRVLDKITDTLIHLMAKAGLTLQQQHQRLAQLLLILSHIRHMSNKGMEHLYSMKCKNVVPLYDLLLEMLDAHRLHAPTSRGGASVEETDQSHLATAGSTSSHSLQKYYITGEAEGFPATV", "test": "Test C: estrogen receptor degradation activity, ERα in cell western assay in MCF7 cells", "assay_type": "cell-based", "conditions": "for DC50: 4 hours post compound addition, ERα in cell western, read-out: Degradation IC50; for % Degradation at 3 μM: 4 hours, relative to fulvestrant", "procedure,_shortened": "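Cells seeded in stripped-serum medium are dosed the next day across a nine-concentration series (3 down to 0.000018 μM). Four hours later they are fixed, blocked, probed overnight with anti-ERα antibody, then labelled with an Alexa 488 secondary and a DNA dye before plate scanning.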"}, "[3]": {"target": "His6-ERα298-554 WT (ERα ligand-binding domain) (Homo sapiens (Human), UniProt P03372)", "sequence (P03372 298-554)": "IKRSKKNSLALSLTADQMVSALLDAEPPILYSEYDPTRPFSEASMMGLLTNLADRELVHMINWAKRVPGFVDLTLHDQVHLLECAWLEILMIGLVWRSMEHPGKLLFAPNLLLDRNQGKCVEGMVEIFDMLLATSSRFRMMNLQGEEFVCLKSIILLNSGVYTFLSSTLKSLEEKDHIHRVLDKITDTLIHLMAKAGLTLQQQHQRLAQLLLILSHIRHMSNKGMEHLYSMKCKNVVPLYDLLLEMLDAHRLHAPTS", "test": "Test A: biochemical antagonist activity, LanthaScreen TR-FRET ERα coactivator assay, WT", "conditions": "protocol with 3 nM estradiol; read-out: Antagonism WT IC50", "procedure,_shortened": "(§2)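 Compounds were added to receptor LBD (0.5 nM), terbium-labelled His6 antibody (0.5 nM), PGC1a coactivator peptide (250 nM) and estradiol at 3 nM or 10 nM. After incubating overnight at room temperature, the 520:495 nm ratio gave IC50 values by four-parameter logistic regression.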"}, "[4]": {"target": "His6-ERα298-554 Y537S mutant (ERα ligand-binding domain) (Homo sapiens (Human), UniProt P03372, Y537S)", "sequence (P03372 298-554 Y537S)": "as the sequence (P03372 298-554) above, with Y240S counted along it", "test": "Test A: biochemical antagonist activity, LanthaScreen TR-FRET ERα coactivator assay, Y537S mutant", "conditions": "protocol with 3 nM estradiol; read-out: Antagonism Y537S IC50", "procedure,_shortened": "as §2"}, "[5]": {"tested_on": "MCF7 cells expressing mutant estrogen receptor Tyr 537 Ser", "test": "Test B: cell proliferation/viability assay (CellTiter-Glo) on MCF7 Tyr 537 Ser mutant", "assay_type": "cell-based", "conditions": "Homo sapiens, MCF7, 168 h, MCF7 cells expressing ER Tyr 537 Ser mutant, 7 days of compound exposure, read-out: proliferation MCF7 Y537S IC50", "procedure,_shortened": "as §1"}, "[6]": {"target": "His6-ERα298-554 D538G mutant (ERα ligand-binding domain) (Homo sapiens (Human), UniProt P03372, D538G)", "sequence (P03372 298-554 D538G)": "as the sequence (P03372 298-554) above, with D241G counted along it", "test": "Test A: biochemical antagonist activity, LanthaScreen TR-FRET ERα coactivator assay, D538G mutant", "conditions": "protocol with 3 nM estradiol; read-out: Antagonism D538G IC50", "procedure,_shortened": "as §2"}}, "note": "pIC50: −log10 of the molar value.", "data": [{"compound": "Cc1ccc(C2=C(c3ccc(O[C@H]4CCN(CCCF)C4)cc3)c3ccc(O)cc3SCC2)c(F)c1", "note": "[Example 164, 4-(2-fluoro-4-methyl-phenyl)-5-[4-[(3S)-1-(3-fluoropropyl)pyrrolidin-3-yl]oxyphenyl]-2,3-dihydro-1-benzothiepin-8-ol]", "values": [{"measurement": "pIC50", "setting": "[1]", "value": 9.22}, {"measurement": "pIC50", "setting": "[2]", "value": 9.22}, {"measurement": "DC50", "setting": "ERα in MCF7 cells", "value": 0.5, "unit": "nM"}, {"measurement": "% Degradation at 3 μM", "setting": "ERα in MCF7 cells", "value": 91, "unit": "%"}, {"measurement": "pIC50", "setting": "[3]", "value": 8.52}, {"measurement": "pIC50", "setting": "[4]", "value": 8.05}, {"measurement": "pIC50", "setting": "[5]", "value": 8.30}, {"measurement": "pIC50", "setting": "[6]", "value": 7.89}]}, {"compound": "Oc1ccc2c(c1)SCCC(c1ccc3cc[nH]c3c1)=C2c1ccc(O[C@H]2CCN(CCCF)C2)cc1", "note": "[Example 172, 5-[4-[(3S)-1-(3-fluoropropyl)pyrrolidin-3-yl]oxyphenyl]-4-(1H-indol-6-yl)-2,3-dihydro-1-benzothiepin-8-ol]", "values": [{"measurement": "pIC50", "setting": "[1]", "value": 9.70}, {"measurement": "pIC50", "setting": "[2]", "value": 8.70}, {"measurement": "DC50", "setting": "ERα in MCF7 cells", "value": 0.4, "unit": "nM"}, {"measurement": "% Degradation at 3 μM", "setting": "ERα in MCF7 cells", "value": 87, "unit": "%"}, {"measurement": "pIC50", "setting": "[3]", "value": 8.22}, {"measurement": "pIC50", "setting": "[4]", "value": 7.74}, {"measurement": "pIC50", "setting": "[5]", "value": 7.92}, {"measurement": "pIC50", "setting": "[6]", "value": 7.62}]}, {"compound": "Oc1ccc2c(c1)SCCC(c1ccc3c(c1)CCN3)=C2c1ccc(O[C@H]2CCN(CCCF)C2)cc1", "note": "[Example 176, 5-[4-[(3S)-1-(3-fluoropropyl)pyrrolidin-3-yl]oxyphenyl]-4-indolin-5-yl-2,3-dihydro-1-benzothiepin-8-ol]", "values": [{"measurement": "pIC50", "setting": "[1]", "value": 8.52}, {"measurement": "pIC50", "setting": "[2]", "value": 8.05}, {"measurement": "DC50", "setting": "ERα in MCF7 cells", "value": 0.2, "unit": "nM"}, {"measurement": "% Degradation at 3 μM", "setting": "ERα in MCF7 cells", "value": 85, "unit": "%"}, {"measurement": "pIC50", "setting": "[3]", "value": 8.22}, {"measurement": "pIC50", "setting": "[4]", "value": 7.70}, {"measurement": "pIC50", "setting": "[5]", "value": 7.32}, {"measurement": "pIC50", "setting": "[6]", "value": 7.55}]}, {"compound": "Oc1ccc2c(c1)SCCC(c1cccc3[nH]ccc13)=C2c1ccc(O[C@H]2CCN(CCCF)C2)cc1", "note": "[Example 178, 5-[4-[(3S)-1-(3-fluoropropyl)pyrrolidin-3-yl]oxyphenyl]-4-(1H-indol-4-yl)-2,3-dihydro-1-benzothiepin-8-ol]", "values": [{"measurement": "pIC50", "setting": "[1]", "value": 9.30}, {"measurement": "pIC50", "setting": "[2]", "value": 8.70}, {"measurement": "DC50", "setting": "ERα in MCF7 cells", "value": 0.4, "unit": "nM"}, {"measurement": "% Degradation at 3 μM", "setting": "ERα in MCF7 cells", "value": 87, "unit": "%"}, {"measurement": "pIC50", "setting": "[3]", "value": 8.70}, {"measurement": "pIC50", "setting": "[4]", "value": 8.15}, {"measurement": "pIC50", "setting": "[5]", "value": 7.80}, {"measurement": "pIC50", "setting": "[6]", "value": 8.00}]}, {"compound": "Oc1ccc2c(c1)SCCC(c1cnc3c(c1)CCN3)=C2c1ccc(O[C@H]2CCN(CCCF)C2)cc1", "note": "[Example 183, 4-(2,3-dihydro-1H-pyrrolo[2,3-b]pyridin-5-yl)-5-[4-[(3S)-1-(3-fluoropropyl)pyrrolidin-3-yl]oxyphenyl]-2,3-dihydro-1-benzothiepin-8-ol]", "values": [{"measurement": "pIC50", "setting": "[1]", "value": 9.00}, {"measurement": "pIC50", "setting": "[2]", "value": 8.30}, {"measurement": "DC50", "setting": "ERα in MCF7 cells", "value": 1, "unit": "nM"}, {"measurement": "% Degradation at 3 μM", "setting": "ERα in MCF7 cells", "value": 83, "unit": "%"}, {"measurement": "pIC50", "setting": "[3]", "value": 8.15}, {"measurement": "pIC50", "setting": "[4]", "value": 7.15}, {"measurement": "pIC50", "setting": "[5]", "value": 7.14}, {"measurement": "pIC50", "setting": "[6]", "value": 6.91}]}, {"compound": "Oc1ccc2c(c1)SCCC(c1ccc3occc3c1)=C2c1ccc(O[C@H]2CCN(CCCF)C2)cc1", "note": "[Example 184, 4-(benzofuran-5-yl)-5-[4-[(3S)-1-(3-fluoropropyl)pyrrolidin-3-yl]oxyphenyl]-2,3-dihydro-1-benzothiepin-8-ol]", "values": [{"measurement": "pIC50", "setting": "[1]", "value": 9.52}, {"measurement": "pIC50", "setting": "[2]", "value": 9.15}, {"measurement": "DC50", "setting": "ERα in MCF7 cells", "value": 0.7, "unit": "nM"}, {"measurement": "% Degradation at 3 μM", "setting": "ERα in MCF7 cells", "value": 87, "unit": "%"}, {"measurement": "pIC50", "setting": "[3]", "value": 9.00}, {"measurement": "pIC50", "setting": "[4]", "value": 8.40}, {"measurement": "pIC50", "setting": "[5]", "value": 8.40}, {"measurement": "pIC50", "setting": "[6]", "value": 8.22}]}, {"compound": "CCOc1ccc(C2=C(c3ccc(O[C@H]4CCN(CCCF)C4)cc3)c3ccc(O)cc3SCC2)cc1F", "note": "[Example 185, 4-(4-ethoxy-3-fluoro-phenyl)-5-[4-[(3S)-1-(3-fluoropropyl)pyrrolidin-3-yl]oxyphenyl]-2,3-dihydro-1-benzothiepin-8-ol]", "values": [{"measurement": "pIC50", "setting": "[1]", "value": 9.40}, {"measurement": "pIC50", "setting": "[2]", "value": 9.00}, {"measurement": "DC50", "setting": "ERα in MCF7 cells", "value": 0.7, "unit": "nM"}, {"measurement": "% Degradation at 3 μM", "setting": "ERα in MCF7 cells", "value": 84, "unit": "%"}, {"measurement": "pIC50", "setting": "[3]", "value": 8.54}, {"measurement": "pIC50", "setting": "[4]", "value": 7.19}, {"measurement": "pIC50", "setting": "[5]", "value": 8.22}, {"measurement": "pIC50", "setting": "[6]", "value": 6.98}]}]}
